From US7501384B2, “Crystalline modification of the anhydrate of boscalid” (BASF Aktiengesellschaft, priority 2003, dated 2009)

Test: Tank mixing compatibility: 5% suspension of water-dispersible granules in CIPAC D water mixed with 1% Solvesso 200, stored, solid residue on 75 μm sieve determined
Format: physicochemical
Experimental: Comparison of the Tank Mixing Compatibility: For this purpose, both water-dispersible granules of the above composition, comprising anhydrate of the compound of the formula I of modification I (formulation A), and water-dispersible granules of anhydrate of the compound of the formula I of modification II (formation B) were prepared. A 5% strength suspension of the respective water-dispersible granules in CIPAC D water (Ca^++/Mg^++ (4:1) hardness of 342 ppm and pH of from 6.0 to 7.0 was then prepared. This suspension was then mixed with 1% of Solvesso 200 (mixture of aromatic hydrocarbons) as a typical solvent for solvent-containing liquid formulations (e.g. EC). The corresponding spray liquor was then stored over a certain period at a certain temperature. For assessing the quality, the solid residue on a 75 μm sieve was determined after the storage.

Q: For `O=C(Nc1ccccc1-c1ccc(Cl)cc1)c1cccnc1Cl` [modification II, 2-chloro-N-(4′-chlorobiphenyl-2-yl)-nicotinamide], which “crystal growth in the presence of solvents” value is on record?
A: scarcely any crystal growth
